In US20250009896A1, “SUPR[…] BASED VIRAL […] CAPTURE FOR PREVENTION AND THERAPY OF VIRAL INFECTION” (The Johns Hopkins University, priority 2023, published 2025):
Residues, ends and D or L forms follow the SMILES beside them. *: point of attachment. Lauroyl = CCCCCCCCCCCC(=O)*

Columns and labels:
SARS-CoV-2 PsV = format: cell-based; conditions: 0.5 nM ACE2 dose
VSVG PsV = format: cell-based, vesicular stomatitis virus
SARS-CoV PsV = format: cell-based
[1] = molecular target: Recombinant human angiotensin-converting enzyme 2 (ACE2) (Homo sapiens, UniProt Q9BYF1); experiment: ACE2 activity assay with fluorogenic peptide substrate Mca-YVADAPK(Dnp)-OH; conditions: 50 nM ACE2; 1 mM Filler or 50 μM Ligand
Chain of Recombinant human angiotensin-converting enzyme 2 (ACE2) (Q9BYF1 18-740): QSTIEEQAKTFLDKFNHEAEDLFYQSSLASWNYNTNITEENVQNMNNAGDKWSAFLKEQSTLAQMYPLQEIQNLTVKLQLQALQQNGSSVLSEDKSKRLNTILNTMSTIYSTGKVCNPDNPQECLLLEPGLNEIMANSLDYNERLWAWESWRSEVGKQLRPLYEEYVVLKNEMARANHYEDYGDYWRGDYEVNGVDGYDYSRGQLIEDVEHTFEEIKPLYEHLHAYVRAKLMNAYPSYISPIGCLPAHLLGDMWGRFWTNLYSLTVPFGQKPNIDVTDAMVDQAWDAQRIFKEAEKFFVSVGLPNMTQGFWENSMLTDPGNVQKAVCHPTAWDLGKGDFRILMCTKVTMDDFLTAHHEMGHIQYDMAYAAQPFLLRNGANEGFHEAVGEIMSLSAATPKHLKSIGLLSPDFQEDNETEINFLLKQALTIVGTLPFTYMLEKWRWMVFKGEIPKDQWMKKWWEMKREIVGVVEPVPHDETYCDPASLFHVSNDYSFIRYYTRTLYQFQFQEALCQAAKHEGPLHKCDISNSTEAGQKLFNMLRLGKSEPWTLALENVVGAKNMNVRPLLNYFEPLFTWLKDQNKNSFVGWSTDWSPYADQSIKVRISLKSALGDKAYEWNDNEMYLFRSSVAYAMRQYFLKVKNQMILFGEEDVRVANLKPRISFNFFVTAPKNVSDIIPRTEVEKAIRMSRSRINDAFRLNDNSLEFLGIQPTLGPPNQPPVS

[2] = Critical micelle concentration by Nile Red assay; format: physicochemical; conditions: MilliQ water pH=7.4, Nile Red assay
Procedure: Using a Nile Red assay, the CMC of each PA monomer (Filler and Ligand) and their co-assembly (1:1 molar ratio) was determined. Nile Red dye intensely fluoresces within hydrophobic environments but is strongly quenched and red-shifted in aqueous environments. Thus, when mixed with PAs at a concentration exceeding the CMC, Nile Red will embed within the hydrophobic core and emit a strong fluorescence signal. A 500 μM stock solution of Nile Red was prepared in acetone, and 10 μL of the stock was added to microcentrifuge tubes. Acetone was evaporated off in the dark. Solutions of the samples (500 μL, water) were added to the tubes at varied concentrations and were aged for 2 days in the dark at room temperature. Samples were added to a quartz micro fluorometer cell (0.7 mL, 10 mm pathlength, Starna Cells, Atascadero, CA), and at an excitation wavelength of 550 nm, five parallel emission spectra were recorded at a wavelength range of 580 to 720 nm on a Duetta UV-Vis-NIR spectrofluorometer (HORIBA Scientific). The emission intensity ratio for each run at 635 nm (emission maximum of Nile Red in a hydrophobic environment) to 660 nm (emission maximum of Nile Red in a hydrophilic environment) was plotted against tested concentrations to obtain a transition curve from which CMC was determined.

ACE2 [3] = molecular target: T1, ACE2 (Homo sapiens, UniProt Q9BYF1); conditions: ACE2 inhibitor; cited from earlier work
T1 sequence (Q9BYF1 18-805): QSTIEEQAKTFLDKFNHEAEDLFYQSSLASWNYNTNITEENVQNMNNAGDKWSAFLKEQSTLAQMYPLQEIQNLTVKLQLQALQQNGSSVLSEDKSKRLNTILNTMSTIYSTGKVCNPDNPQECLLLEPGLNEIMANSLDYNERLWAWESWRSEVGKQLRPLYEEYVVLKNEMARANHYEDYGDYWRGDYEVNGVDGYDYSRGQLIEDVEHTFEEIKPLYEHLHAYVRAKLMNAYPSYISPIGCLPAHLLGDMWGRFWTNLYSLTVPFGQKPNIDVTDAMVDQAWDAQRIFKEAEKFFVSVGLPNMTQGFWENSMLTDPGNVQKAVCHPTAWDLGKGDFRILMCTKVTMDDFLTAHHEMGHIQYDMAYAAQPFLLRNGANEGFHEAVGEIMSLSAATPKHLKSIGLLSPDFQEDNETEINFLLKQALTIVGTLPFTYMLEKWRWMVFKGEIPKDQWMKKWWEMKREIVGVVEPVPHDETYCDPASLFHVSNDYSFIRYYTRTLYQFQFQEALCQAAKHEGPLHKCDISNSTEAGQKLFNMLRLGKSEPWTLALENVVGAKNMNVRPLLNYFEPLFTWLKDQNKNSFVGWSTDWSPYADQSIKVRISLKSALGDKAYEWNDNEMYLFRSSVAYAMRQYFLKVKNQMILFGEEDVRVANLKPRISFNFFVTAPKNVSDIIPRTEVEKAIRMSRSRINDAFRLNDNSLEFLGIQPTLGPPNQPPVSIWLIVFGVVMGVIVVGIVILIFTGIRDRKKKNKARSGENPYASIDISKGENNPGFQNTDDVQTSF

ACE2 [4] = molecular target: T1, ACE2; conditions: cited from earlier work

ACE2: Recombinant human angiotensin-converting enzyme 2 (ACE2) protein (carrier-free), R&D Systems
incubation time at which inhibition becomes identical to / indistinguishable from empty filaments (SARS-CoV-2 PsV): ≤ 6 h
VSVG PsV infection inhibition (dose-dependent strong inhibition trend) (VSVG PsV): not observed
SARS-CoV PsV infection inhibition (SARS-CoV PsV): strongly inhibited

CCCCCCCCCCCC(=O)N[C@H](C(=O)N[C@H](C(=O)N[C@H](C(=O)NCC(=O)N[C@@H](CCC(=O)O)C(=O)N[C@@H](CCC(=O)O)C(N)=O)C(C)C)C(C)C)C(C)C [Filler] (Lauroyl-VVVGEE-NH2)
impact on ACE2 activity / initial velocity [1]: slight impact on ACE2 activity
critical micelle concentration (CMC) [2]: around 2.9 μM

non-cleavable peptidic ACE2 inhibitor GDYSHCSPLRYYPWWKCTYPDPEGGG (SEQ ID NO: 5/16) [DX600]
Ki (ACE2 [3]): 2.8 nM
Kd (ACE2 [4]): 10.1 nM
